Measurements from patent US6407098B1, “Fungicidal aza-heterocycloalkenes” (Bayer Aktiengesellschaft, priority 1995, dated 2002).

What was measured:
Venturia inaequalis = test: Venturia test (apple)/protective; format: in vivo; settings: protective, active compound concentration 500 ppm, evaluation 12 days after inoculation
Description: Venturia test (apple)/protective Solvent: 12.5 parts by weight of acetone Emulsifier: 0.3 parts by weight of alkylaryl polyglycol ether To produce a suitable preparation of active compound, 1 part by weight of active compound is mixed with the stated amounts of solvent and emulsifier, and the concentrate is diluted with water to the desired concentration. To test for protective activity, young plants are sprayed with the preparation of active compound until dripping wet. After the spray coating has dried on, the plants are inoculated with an aqueous conidia suspension of the apple scab causative organism Venturia inaequalis and then remain in an incubation cabin at 20° C. and 100% relative atmospheric humidity for 1 day. The plants are then placed in a greenhouse at 20° C. and a relative atmospheric humidity of about 70%. Evaluation is carried out 12 days after the inoculation.

[1] = system: Erysiphe graminis f.sp. hordei; test: Erysiphe test (barley)/protective; format: in vivo; settings: protective, active compound concentration 500 ppm, evaluation 7 days after inoculation
Description: Erysiphe test (barley)/protective Solvent: 12.5 parts by weight of N-methyl-pyrrolidone Emulsifier: 0.3 parts by weight of alkylaryl polyglycol ether To produce a suitable preparation of active compound, 1 part by weight of active compound is mixed with the stated amounts of solvent and emulsifier, and the concentrate is diluted with water to the desired concentration. To test for protective activity, young plants are sprayed with the preparation of active compound at the stated application rate. After the spray coating has dried on, the plants are dusted with spores of Erysiphe graminis f.sp. hordei. The plants are placed in a greenhouse at a temperature of about 20° C. and a relative atmospheric humidity of about 80%, in order to promote the development of powdery mildew pustules. Evaluation is carried out 7 days after the inoculation.

logP = format: physicochemical
Podosphaera leucotricha = test: Podosphaera test (apple)/protective; format: in vivo; settings: protective, active compound concentration 100 ppm, evaluation 10 days after inoculation
Description: Podosphaera test (apple)/protective Solvent: 4.7 parts by weight of acetone Emulsifier: 0.3 parts by weight of alkylaryl polyglycol ether To produce a suitable preparation of active compound, 1 part by weight of active compound is mixed with the stated amounts of solvent and emulsifier, and the concentrate is diluted with water to the desired concentration. To test for protective activity, young plants are sprayed with the preparation of active compound. After the spray coating has dried on, the plants are inoculated by dusting with conidia of the causative organism of apple mildew (Podosphaera leucotricha). The plants are then placed in a greenhouse at 23° C. and a relative atmospheric humidity of about 70%. Evaluation is carried out 10 days after the inoculation.

Sphaerotheca fuliginea = test: Sphaerotheca test (cucumber)/protective; format: in vivo; settings: protective, active compound concentration 100 ppm, evaluation 10 days after inoculation
Description: Sphaerotheca test (cucumber)/protective Solvent: 4.7 parts by weight of acetone Emulsifier: 0.3 parts by weight of alkylaryl polyglycol ether To produce a suitable preparation of active compound, 1 part by weight of active compound is mixed with the stated amounts of solvent and emulsifier, and the concentrate is diluted with water to the desired concentration. To test for protective activity, young plants are sprayed with the preparation of active compound. After the spray coating has dried on, the plants are dusted with conidia of the fungus Sphaerotheca fuliginea. The plants are then placed in a greenhouse at 23 to 24° C. and at a relative atmospheric humidity of about 75%. Evaluation is carried out 10 days after the inoculation.

`CO/N=C(/C1=NOCCN1)c1ccccc1COc1ccccc1C` [Example I-1, 3-{1-[2-(2-methylphenoxymethyl)-phenyl]-1-(methoximino)-methyl}-5,6-dihydro-4H-1,2,4-oxadiazine] showed a degree of action (Venturia inaequalis) of 100% and a degree of action [1] of 90%.
`CON=C(C1=NN(C)CCO1)c1ccccc1COc1ccccc1C` [Example I-3, 2-{1-methoximino-1-[2-(2-methylphenoxymethyl)-phenyl]-methyl}-4-methyl-5,6-dihydro4H-1,3,4oxadiazine] showed a logP (logP) of 3.54.
In the case of `CO/N=C(/C1=NOCCS1)c1ccccc1COc1ccccc1C` [Example I-2, 3-{1-[2-(2-methylphenoxymethyl)phenyl]-1-(methoximino)methyl}-5,6dihydro4H-1,4,2-oxathiazine], the degree of action (Venturia inaequalis) is reported as 100%, the degree of action [1] is reported as 90% and the degree of action (Podosphaera leucotricha) is reported as 90%. The degree of action (Sphaerotheca fuliginea) was 96%.
